Values of other authors, collected in US20130203858A1, “Fast-Dissolving Solid Pharmaceutical Form for Treating Bacterial Infections” (Nanocore Biotecnologia S.A., priority 2010, published 2013).

What was measured:
[1] = WO2009/061780 composition in the absence of PVP

CS(=O)(=O)c1ccc([C@@H](O)[C@@H](CF)NC(=O)C(Cl)Cl)cc1 [florfenicol, Florfenicol]
portion of the drug solubilized in water [1]: about 40% | solubility in water: about 1.2 mg/mL | portion of the drug that solubilises in water (without addition of surfactants): about 20%
